Measured values from patent US20110092517A1, “Use of PPAR Delta Ligands for the Treatment or Prevention of Inflammation or Energy Metabolism/Production Related Diseases” (Cerenis Therapeutics S.A. & Nippon Chemiphar Co., Ltd., priority 2009, published 2011).

How the values were obtained:
human PPARγ = biological target: T1, human PPARγ (Homo sapiens, UniProt P37231); assay: Full-length receptor transactivation assay (PPREx3-tk-luc, hRXRα) in CV-1 cells; type: cell-based; conditions: full-length hPPARγ + RXRalpha, read-out: Transactivation activity FULL-hPPAR + mRXRalpha (EC50-Um) gamma
T1 construct: expressed in transfected cells; host or cells: CV-1
T1 sequence (P37231 1-505): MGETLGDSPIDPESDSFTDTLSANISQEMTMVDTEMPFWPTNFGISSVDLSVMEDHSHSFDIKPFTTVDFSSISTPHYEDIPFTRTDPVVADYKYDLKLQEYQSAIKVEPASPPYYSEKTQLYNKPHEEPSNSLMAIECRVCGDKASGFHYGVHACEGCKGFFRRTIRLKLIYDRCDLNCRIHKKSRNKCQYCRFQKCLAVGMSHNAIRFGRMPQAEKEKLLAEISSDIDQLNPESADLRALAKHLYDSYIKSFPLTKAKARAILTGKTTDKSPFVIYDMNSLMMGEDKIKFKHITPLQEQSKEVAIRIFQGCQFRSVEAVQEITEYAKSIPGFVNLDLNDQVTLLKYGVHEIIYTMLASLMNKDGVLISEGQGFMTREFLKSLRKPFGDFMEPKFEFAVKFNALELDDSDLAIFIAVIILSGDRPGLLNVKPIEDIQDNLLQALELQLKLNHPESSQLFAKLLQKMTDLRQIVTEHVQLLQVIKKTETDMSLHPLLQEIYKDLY
T1 sequence (P19793 1-462 partner): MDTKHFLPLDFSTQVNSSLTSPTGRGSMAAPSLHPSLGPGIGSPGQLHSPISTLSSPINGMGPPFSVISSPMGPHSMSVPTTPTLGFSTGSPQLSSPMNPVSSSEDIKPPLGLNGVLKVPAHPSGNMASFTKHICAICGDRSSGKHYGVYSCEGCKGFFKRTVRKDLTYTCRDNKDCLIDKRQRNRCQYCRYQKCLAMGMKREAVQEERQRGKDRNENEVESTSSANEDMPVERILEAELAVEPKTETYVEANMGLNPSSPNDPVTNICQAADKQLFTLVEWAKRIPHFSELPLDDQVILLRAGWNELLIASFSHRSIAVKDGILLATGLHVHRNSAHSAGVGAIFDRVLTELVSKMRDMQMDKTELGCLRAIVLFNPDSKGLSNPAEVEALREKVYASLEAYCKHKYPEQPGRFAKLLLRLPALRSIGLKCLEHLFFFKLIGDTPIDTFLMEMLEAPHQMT
Method: (§1) Receptor expression plasmids: Full-length coding sequences for human PPARα, PPARγ and PPARδ were inserted into the mammalian expression vector pcDNA3.1+ or pCMX. The full-length coding sequence for human RXRα was inserted into pcDNA3.1+.
(§2) Reporter plasmid: PPREx3-tk-luc (3) was used as the reporter plasmid. It contains three copies of rat Acyl-CoA oxidase peroxisome proliferator response element (PPRE) sequence (AGGACA-A-AGGTCA).
(§3) The luciferase and βGAL activity were measured according to the methods of Umesono, K. et al. (4) with slight modifications. A substrate reagent kit (Picagene, Toyo Ink) was used for the luciferase assay. Assays were performed in duplicate and triplicate for GAL4-chimeras and full-length receptors, respectively. Experiments were repeated at least four times.

human PPARα [1] = biological target: T2, human PPARα (Homo sapiens, UniProt Q07869); assay: as above; type: cell-based; conditions: full-length hPPARα + RXRalpha, read-out: Transactivation activity FULL-hPPAR + mRXRalpha (EC50-Um) alpha
T2 construct: expressed in transfected cells; host or cells: CV-1
T2 sequence (Q07869 1-468): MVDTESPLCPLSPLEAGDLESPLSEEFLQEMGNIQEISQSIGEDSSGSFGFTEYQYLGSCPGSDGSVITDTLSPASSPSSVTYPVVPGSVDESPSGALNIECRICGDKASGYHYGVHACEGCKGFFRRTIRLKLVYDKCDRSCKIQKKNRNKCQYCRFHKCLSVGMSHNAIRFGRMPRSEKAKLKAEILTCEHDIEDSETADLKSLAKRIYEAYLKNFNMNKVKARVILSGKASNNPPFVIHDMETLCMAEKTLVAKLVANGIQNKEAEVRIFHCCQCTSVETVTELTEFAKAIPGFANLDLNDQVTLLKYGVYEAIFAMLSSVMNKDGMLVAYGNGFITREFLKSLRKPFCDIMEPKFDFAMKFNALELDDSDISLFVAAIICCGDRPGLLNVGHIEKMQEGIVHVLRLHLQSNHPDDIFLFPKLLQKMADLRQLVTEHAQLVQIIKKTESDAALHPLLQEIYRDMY
T2 sequence (P19793 1-462 partner): T1 sequence (P19793 1-462 partner)
Method: as §1, §2, §3

human PPARδ [2] = biological target: T3, human PPARδ (Homo sapiens, UniProt Q03181); assay: as above; type: cell-based; conditions: full-length hPPARδ + RXRalpha, read-out: Transactivation activity FULL-hPPAR + mRXRalpha (EC50-Um) delta
T3 construct: expressed in transfected cells; host or cells: CV-1
T3 sequence (Q03181 1-441): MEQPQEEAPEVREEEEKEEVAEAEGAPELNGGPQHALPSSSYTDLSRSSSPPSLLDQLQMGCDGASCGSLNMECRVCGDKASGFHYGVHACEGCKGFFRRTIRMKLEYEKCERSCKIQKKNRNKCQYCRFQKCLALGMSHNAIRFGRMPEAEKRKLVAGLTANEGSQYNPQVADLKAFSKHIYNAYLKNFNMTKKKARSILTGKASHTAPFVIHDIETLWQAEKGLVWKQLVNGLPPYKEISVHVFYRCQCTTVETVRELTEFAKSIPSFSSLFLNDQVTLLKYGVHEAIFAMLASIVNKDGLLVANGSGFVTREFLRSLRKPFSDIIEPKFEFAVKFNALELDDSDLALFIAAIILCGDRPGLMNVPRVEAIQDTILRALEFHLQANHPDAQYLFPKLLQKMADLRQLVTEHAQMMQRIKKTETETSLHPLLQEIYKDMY
T3 sequence (P19793 1-462 partner): T1 sequence (P19793 1-462 partner)
Method: as §1, §2, §3

human PPARδ [3] = biological target: T4, human PPARδ (Homo sapiens, UniProt Q03181); assay: GAL4-PPAR chimera receptor transactivation assay in CV-1 cells (Example 3); type: cell-based; conditions: GAL4 DBD-hPPARδ LBD chimera, read-out: Transactivation activity GAL 4 DBD-hPPAR LBD (EC50-Um) delta
T4 construct: PPARδ (amino acids 139-441); expressed in transfected cells; host or cells: CV-1
T4 sequence (Q03181 139-441): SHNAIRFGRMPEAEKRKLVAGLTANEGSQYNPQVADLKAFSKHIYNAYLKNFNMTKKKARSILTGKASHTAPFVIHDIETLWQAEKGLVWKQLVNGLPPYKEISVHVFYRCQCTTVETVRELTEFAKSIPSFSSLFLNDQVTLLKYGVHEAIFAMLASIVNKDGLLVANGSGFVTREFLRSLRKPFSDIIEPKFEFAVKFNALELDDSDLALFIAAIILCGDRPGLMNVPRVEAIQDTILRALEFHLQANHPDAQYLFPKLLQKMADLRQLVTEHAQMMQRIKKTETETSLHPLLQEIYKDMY
Method: (§4) MH100×4-tk-luc (2) was used as the reporter plasmid.
as §3

human PPARα [4] = biological target: T5, human PPARα (Homo sapiens, UniProt Q07869); assay: as above; type: cell-based; conditions: GAL4 DBD-hPPARα LBD chimera, read-out: Transactivation activity GAL 4 DBD-hPPAR LBD (EC50-Um) alpha
T5 construct: human PPARα (amino acids 167-468); expressed in transfected cells; host or cells: CV-1
T5 sequence (Q07869 167-468): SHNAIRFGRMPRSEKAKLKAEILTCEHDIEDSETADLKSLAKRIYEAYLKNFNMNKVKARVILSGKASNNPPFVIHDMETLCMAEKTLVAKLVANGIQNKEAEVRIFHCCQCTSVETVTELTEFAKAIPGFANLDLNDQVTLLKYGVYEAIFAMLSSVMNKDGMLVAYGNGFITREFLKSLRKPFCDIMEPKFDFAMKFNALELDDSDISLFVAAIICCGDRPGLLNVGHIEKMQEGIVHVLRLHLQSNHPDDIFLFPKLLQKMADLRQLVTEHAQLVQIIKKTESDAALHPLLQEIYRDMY
Method: as §4, §3

human PPARγ1 = biological target: T6, human PPARγ1 (Homo sapiens, UniProt P37231); assay: as above; type: cell-based; conditions: GAL4 DBD-hPPARγ LBD chimera, read-out: Transactivation activity GAL 4 DBD-hPPAR LBD (EC50-Um) gamma
T6 construct: PPARγ1 (amino acids 176-477); expressed in transfected cells; host or cells: CV-1
T6 sequence (P37231 176-477 isoform P37231-2): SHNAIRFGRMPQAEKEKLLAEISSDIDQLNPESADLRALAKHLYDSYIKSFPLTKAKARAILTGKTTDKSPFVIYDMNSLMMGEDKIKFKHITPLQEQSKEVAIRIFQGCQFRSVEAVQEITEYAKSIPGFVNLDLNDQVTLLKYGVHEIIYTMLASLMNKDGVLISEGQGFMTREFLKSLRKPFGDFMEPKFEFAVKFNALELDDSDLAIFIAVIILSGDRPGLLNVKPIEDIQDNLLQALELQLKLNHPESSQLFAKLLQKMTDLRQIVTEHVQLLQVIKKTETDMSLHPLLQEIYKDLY
Method: as §4, §3

[5] = toxicological dosages for 10 days, cited from earlier work; for Peroxisome proliferation in muscle and liver: WT mice

Structure (SMILES) | EC50 (human PPARγ) | EC50 (human PPARα [1]) | EC50 (human PPARδ [2]) | EC50 (human PPARδ [3]) | EC50 (human PPARα [4]) | EC50 (human PPARγ1) | Peroxisome proliferation in muscle and liver [5] | Incidence and severity of skeletal myopathy ([5]; WT vs PPAR-α KO mice)
Cc1cc(C(=O)CCc2nc(-c3ccc(Cl)cc3O)oc2C(C)C)ccc1OCC(=O)O | 9.8 µM | 3.8 µM | 0.058 µM | 0.032 µM | > 10 µM | > 10 µM |  | 
Cc1cc2c(CCc3nc(-c4ccc(Cl)cc4Cl)oc3C(C)C)noc2cc1OCC(=O)O | > 10 µM | 7.8 µM | 0.007 µM | 0.025 µM | > 10 µM | > 10 µM |  | 
Cc1cc(C(=O)/C=C/c2sc(-c3ccc(C(F)(F)F)cc3)nc2C(C)C)ccc1OCC(=O)O | > 10 µM | > 10 µM | 0.019 µM | 0.045 µM | > 10 µM | > 10 µM |  | 
Cc1cc(C(=O)CCc2sc(-c3ccc(C(F)(F)F)cc3)nc2C(C)C)ccc1SCC(=O)O |  |  |  | 0.018 µM | 3.3 µM | 6.7 µM |  | 
Cc1cc(C(O)CCc2sc(-c3ccc(C(F)(F)F)cc3)nc2C(C)C)ccc1OCC(=O)O (stereo not drawn) | > 8 µM | > 8 µM | > 0.3 µM | > 1 µM | > 10 µM | > 10 µM |  | 
Cc1cc([C@H](O)CCc2sc(-c3ccc(C(F)(F)F)cc3)nc2C(C)C)ccc1OCC(=O)O |  |  |  | > 0.7 µM | > 10 µM | > 10 µM |  | 
Cc1cc(SCc2sc(-c3ccc(C(F)(F)F)c(F)c3)nc2C)ccc1OCC(=O)O [GW0742] |  |  |  |  |  |  | significant peroxisome proliferation | greater in WT mice
Cc1cccc(Nc2cc(Cl)nc(SCC(=O)O)n2)c1C [WY-14,643] |  |  |  |  |  |  | significant peroxisome proliferation | 
Cc1cc(C(=O)CCc2sc(-c3ccc(C(F)(F)F)cc3)nc2C(C)C)ccc1OCC(=O)O [drawing 63] | 5.8 µM | 3.2 µM | 0.0022 µM | 0.018 µM | > 10 µM | > 8 µM |  | 
